Test results taken from patent US8461328B2, “Tricyclic heterocyclic compounds, compositions and methods of use thereof” (Genentech, Inc., priority 2010, dated 2013).

How the values were obtained:
Assay type in all cases: biochemical
[1] = target: T1, TYK2 (Homo sapiens, UniProt P29597); assay: TYK2 inhibition (Table 4)
T1 construct: made in house; host or cells: SF9 insect cells (baculovirus)
T1 sequence (P29597 873-1187): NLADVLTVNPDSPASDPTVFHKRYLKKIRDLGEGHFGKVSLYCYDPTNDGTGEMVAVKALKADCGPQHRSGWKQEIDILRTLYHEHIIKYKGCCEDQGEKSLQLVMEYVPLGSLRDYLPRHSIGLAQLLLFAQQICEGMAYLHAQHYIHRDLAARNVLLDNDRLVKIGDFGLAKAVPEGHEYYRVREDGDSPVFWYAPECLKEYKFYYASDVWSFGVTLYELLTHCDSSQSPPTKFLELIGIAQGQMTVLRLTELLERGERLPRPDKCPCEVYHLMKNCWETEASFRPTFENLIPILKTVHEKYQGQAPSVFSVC

[2] = target: T2, JAK1 (Homo sapiens, UniProt P23458); assay: JAK1 inhibition (Table 4); conditions: read-out: JAK1 Ki
T2 construct: made in house; host or cells: SF9 insect cells (baculovirus)
T2 sequence (P23458 852-1154): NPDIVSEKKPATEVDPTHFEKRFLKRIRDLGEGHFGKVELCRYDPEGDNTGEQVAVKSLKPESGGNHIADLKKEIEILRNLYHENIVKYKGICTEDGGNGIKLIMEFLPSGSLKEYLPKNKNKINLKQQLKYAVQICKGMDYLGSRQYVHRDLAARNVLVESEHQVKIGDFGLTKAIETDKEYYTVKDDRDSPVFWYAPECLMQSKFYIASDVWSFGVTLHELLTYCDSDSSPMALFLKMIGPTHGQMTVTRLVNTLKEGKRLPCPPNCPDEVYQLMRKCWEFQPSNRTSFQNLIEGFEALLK

[3] = target: T3, JAK3 (Homo sapiens, UniProt P52333); assay: JAK3 inhibition (Table 4); conditions: read-out: JAK3 Ki
T3 construct: made in house; host or cells: SF9 insect cells (baculovirus)
T3 sequence (P52333 783-1124): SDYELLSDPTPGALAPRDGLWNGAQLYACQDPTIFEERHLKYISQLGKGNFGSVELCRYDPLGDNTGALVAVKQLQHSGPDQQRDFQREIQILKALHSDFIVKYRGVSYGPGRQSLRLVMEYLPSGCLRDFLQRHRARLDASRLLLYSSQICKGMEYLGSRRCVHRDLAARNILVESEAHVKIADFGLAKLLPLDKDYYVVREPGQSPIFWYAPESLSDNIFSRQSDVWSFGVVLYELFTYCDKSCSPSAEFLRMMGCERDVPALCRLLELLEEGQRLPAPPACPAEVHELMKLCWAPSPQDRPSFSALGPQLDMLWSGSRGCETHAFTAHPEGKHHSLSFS

[4] = target: T4, JAK2 (Homo sapiens, UniProt O60674); assay: JAK2 inhibition (Table 4); conditions: read-out: JAK2 Ki
T4 construct: made in house; host or cells: SF9 insect cells (baculovirus)
T4 sequence (O60674 812-1132): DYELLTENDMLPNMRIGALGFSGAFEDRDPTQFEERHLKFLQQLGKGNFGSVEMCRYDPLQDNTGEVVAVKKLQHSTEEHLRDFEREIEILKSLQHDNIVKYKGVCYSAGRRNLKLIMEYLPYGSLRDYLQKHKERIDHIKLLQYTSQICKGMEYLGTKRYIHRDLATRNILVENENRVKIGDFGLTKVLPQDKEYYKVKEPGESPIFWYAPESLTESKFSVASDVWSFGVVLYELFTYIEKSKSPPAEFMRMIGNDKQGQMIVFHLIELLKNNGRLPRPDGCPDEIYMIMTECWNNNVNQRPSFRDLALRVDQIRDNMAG

| Molecule | Ki [1] [nM] | Ki [2] [nM] | Ki [3] [nM] | Ki [4] [nM] |
| --- | --- | --- | --- | --- |
| Cc1nc2cnc3[nH]ccc3c2n1[C@@H]1CC[C@@H](NC(=O)CC(F)(F)F)C1 [Example 624, 3,3,3-Trifluoro-N-[(1R,3R)-3-(2-methyl-6H-1,2,3,5,6-tetraaza-as-indacen-1-yl)-cyclopentyl]-propionamide] | 63 | 2.23 | 13.9 | 10.2 |
| O=C(Cc1nc2cnc3[nH]ccc3c2n1C1CCN(Cc2cccnc2)CC1)N1CCC(F)(F)CC1 [Example 286, 1-(4,4-Difluoro-piperidin-yl)-2-[1-(1-pyridin-3-ylmethyl-piperidin-4-yl)-1,6-dihydro-1,3,5,6-tetraaza-as-indacen-2-yl]-ethanone] | 442 | 3.56 | 6.46 | 47.8 |
| CO[C@H](C)c1nc2cnc3[nH]ccc3c2n1C1CCCCC1 [Example 685, 1-Cyclohexyl-2-((R)-1-methoxy-ethyl)-1,6-dihydro-1,2,3,5,6-tetraaza-as-indacene] | 125 | 37.1 | 34.4 | 115 |
| CC1CC(n2cnc3cnc4[nH]ccc4c32)CCN1Cc1ccccc1 (racemic) [Example 128, 1-(1-Benzyl-2-methyl-piperidin-4-yl)-1,6-dihydro-1,2,3,5,6-tetraaza-as-indacene] | 82.6 | 2.09 | 60.8 | 2.11 |
| N-tert-Butyl-2-[1-(tetrahydro-pyran-3-yl)-1,6-dihydro-1,3,5,6-tetraaza-as-indacen-2-yl]-acetamide [Example 964] | 487 | 78.9 | 164 | 274 |
| COC(=O)N[C@H]1CC[C@H](n2nnc3cnc4[nH]ccc4c32)CC1 [Example 353, [4-(6H-1,2,3,5,6-Pentaaza-as-indacen-1-yl)-cyclohexyl]-carbamic acid methyl ester] | 87.4 | 8.27 | 216 | 15 |
| c1cc2c(ncc3ncn(C4CCOCC4)c32)[nH]1 [Example 468, 1-(Tetrahydro-pyran-4-yl)-1,6-dihydro-1,3,5,6-tetraaza-as-indacene] | 82.3 | 14.4 | 150 | 46.6 |
| O=C(NCCc1nc2cnc3[nH]ccc3c2n1[C@@H]1CCCOC1)C1CC1 [Example 863, (R)-Cyclopropanecarboxylic acid {2-[1-(tetrahydro-pyran-3-yl)-1,6-dihydro-1,3,5,6-tetraaza-as-indacen-2-yl]-ethyl}-amide] | 2020 | 67.2 | 1240 | 828 |
| CC(C)(O)Cc1nc2cnc3[nH]ccc3c2n1C1CCN(CCC#N)CC1 [Example 346, 3-{4-[2-(2-Hydroxy-2-methyl-propyl)-6H-1,3,5,6-tetraaza-as-indacen-1-yl)-piperidin-1-yl}-propionitrile] | 140 | 13.9 | 51.8 | 31.5 |
| CC(C)(C#N)C(=O)N1CCC[C@@H](n2cnc3cnc4[nH]ccc4c32)C1 [Example 297, 2,2-Dimethyl-3-oxo-3-[(R)-3-(6H-1,3,5,6-tetraaza-as-indacen-1-yl)-piperidin-1-yl]-propionitrile] | 31.5 | 3.91 | 21 | 5.28 |
| CC(O)c1nc2cnc3[nH]ccc3c2n1C1CC2CCC1O2 (single isomer, unassigned) [Example 847, endo-1-[1-(7-Oxa-bicyclo[2.2.1]hept-2-yl)-1,6-dihydro-1,3,5,6-tetraaza-as-indacen-2-yl]-ethanol] | 279 | 105 | 381 | 530 |
| Cc1nc2cnc3[nH]ccc3c2n1C1CCN(S(C)(=O)=O)CC1 [Example 86, 1-(1-Methanesulfonyl-piperidin-4-yl)-2-methyl-1,6-dihydro-1,3,5,6-tetraaza-as-indacene] | 48.6 | 7.53 | 71.6 | 17.8 |
| CS(=O)(=O)NCCc1nc2cnc3[nH]ccc3c2n1C1CC2CCC1C2 (centres unmarked) [Example 694, N-[2-(1-Bicyclo[2.2.1]hept-2-yl-1,6-dihydro-1,2,3,5,6-tetraaza-as-indacen-2-yl)-ethyl]-methanesulfonamide] | 7.58 | 0.55 | 20.3 | 5.63 |
| N#Cc1ccc(CN2CCC(n3cnc4cnc5[nH]ccc5c43)CC2)cc1 [Example 48, 4-[4-(6H-1,3,5,6-Tetraaza-as-indacen-1-yl)-piperidin-1-ylmethyl]benzonitrile] | 30.9 | 1.3 | 8.57 | 2.67 |
| FC(F)(F)c1nc(CN2CCC(n3cnc4cnc5[nH]ccc5c43)CC2)cs1 [Example 295, 1-[1-(2-Trifluoromethyl-thiazol-4-ylmethyl)-piperidin-4-yl]-1,6-dihydro-1,3,5,6-tetraaza-as-indacene] | 28.4 | 1.05 | 9.86 | 2.04 |
| O=S(=O)(C1CC1)N1CCC[C@@H](n2cnc3cnc4[nH]ccc4c32)C1 [Example 70, (R)-1-(1-Cyclopropanesulfonyl-piperidin-3-yl]-1,6-dihydro-1,3,5,6-tetraaza-as-indacene] | 68.9 | 12.5 | 38.6 | 15.1 |
| CC(C)(C)OC(=O)N1CCCC1(C)C(=O)N1CCC(n2cnc3cnc4[nH]ccc4c32)CC1 (racemic) [Example 244, 2-Methyl-2-[4-(6H-1,3,5,6-tetraaza-as-indacen-1-yl)-piperidine-1-carbonyl]-pyrrolidine-1 carboxylic acid tert-butyl ester] | 1820 | 198 | 3400 | 363 |
| OC1CCCC(n2cnc3cnc4[nH]ccc4c32)C1 (single isomer, unassigned) [Example 562, 3-(6H-1,3,5,6-Tetraaza-as-indacen-1-yl)-cyclohexanol] | 12 | 4.58 | 5.89 | 7.55 |
| C[C@@H](O)c1nc2cnc3[nH]ccc3c2n1[C@H]1CC[C@H](NCC(F)(F)F)CC1 [Example 614, Trans (R)-1-{1-[4-(2,2,2-trifluoro-ethylamino)-cyclohexyl]-1,6-dihydro-1,2,3,5,6-tetraaza-as-indacen-2-yl}-ethanol] | 3.01 | 0.76 | 63.3 | 13.2 |
| Cc1nc2cnc3[nH]ccc3c2n1C1CCCCC1C (mixture of isomers) [Example 516, 2-Methyl-1-(2-methyl-cyclohexyl)-1,6-dihydro-1,3,5,6-tetraaza-as-indacene] | 7.58 | 2.17 | 5.35 | 2.78 |
| FC(F)(F)c1nc2cnc3[nH]ccc3c2n1C1CCNCC1 [Example 254, 1-Piperidin-4-yl-2-trifluoromethyl-1,6-dihydro-1,3,5,6-tetraaza-as-indacene] | 1500 | 69.5 | 234 | 568 |
| CN1CCN(S(=O)(=O)NCCc2nc3cnc4[nH]ccc4c3n2C2CCCCC2)CC1 [Example 511, 4-Methyl-piperazine-1-sulfonic acid [2-(1-cyclohexyl-1,6-dihydro-1,3,5,6-tetraaza-as-indacen-2-yl)-ethyl]-amide] | 30.3 | 5.3 | 174 | 48.9 |
| Cc1nc2cnc3[nH]ccc3c2n1[C@@H]1CC[C@@H](NC(=O)OC(C)(C)C)C1 [Example 623, [(1R,3R)-3-(2-Methyl-6H-1,2,3,5,6-tetraaza-as-indacen-1-yl)-cyclopentyl]-carbamic acid tert-butyl ester] | 118 | 0.98 | 42.7 | 8.69 |
| Cc1nc2cnc3[nH]ccc3c2n1C1CCc2cn[nH]c2C1 (racemic) [Example 488] | 188 | 31.9 | 87 | 37.1 |
| N#CCCN1CCC(n2c(COC3CCOCC3)nc3cnc4[nH]ccc4c32)CC1 [Example 837, 3-{4-[2-(Tetrahydro-pyran-4-yloxymethyl)-6H-1,3,5,6-tetraaza-as-indacen-1-yl]-piperidin-1-yl}-propionitrile] | 298 | 39.6 | 114 | 83.2 |
| c1ccc(CCN2CCC(n3cnc4cnc5[nH]ccc5c43)CC2)cc1 [Example 80, 1-(1-Phenethyl-piperidin-4-yl)-1,6-dihydro-1,3,5,6-tetraaza-as-indacene] | 106 | 5.61 | 163 | 15.5 |
| N#CCCN1CCC(n2c(CC(=O)NC3CCCC3)nc3cnc4[nH]ccc4c32)CC1 [Example 268, 2-{1-[1-(2-Cyano-ethyl)-piperidin-4-yl]-1,6-dihydro-1,3,5,6-tetraaza-as-indacen-2-yl}-N-cyclopentyl-acetamide] | 120 | 5.06 | 7.5 | 16.1 |
| N#Cc1cccc(CN2CCC(n3cnc4cnc5[nH]ccc5c43)CC2)n1 [Example 304, 6-[4-(6H-1,3,5,6-Tetraaza-as-indacen-1-yl)-piperidin-1-ylmethyl]-pyridine-2-carbonitrile] | 52.4 | 3.32 | 20.4 | 3.55 |
| O=C(Cc1ccccc1)N1CCC[C@@H](n2cnc3cnc4[nH]ccc4c32)C1 [Example 222, 2-Phenyl-1-[(R)-3-(6H-1,3,5,6-tetraaza-as-indacen-1-yl)-piperidin-1-yl]-ethanone] | 555 | 13.8 | 48.1 | 29.1 |
